1 compound from ChEMBL document CHEMBL5678795 (Eur J Pharmacol, 1999) can be followed below.

The term inhibition denotes how much of the control response was suppressed. In general, clearance refers to the volume of plasma or blood freed of the substance per unit of time. Lower therefore signals inefficient removal. By IC50 is commonly meant the concentration that gives 50% inhibition. The low end stands for inhibition by little substance, the high end for a need for much substance. Usually Cmax stands for the maximum level reached in the sampled fluid or tissue.

The source made the active and inactive calls. The rule behind the calls is not given here.

The species named for data set [1] is Homo sapiens. Kind of data set: Displacement of [35S]TBPS to GABA channel Chloride ionophore binding site (unknown origin) at 10 uM by radioligand binding assay relative to control. The following applies: filed as antagonist. On the technique in general: In a radioligand displacement assay an active substance lowers the binding of a labelled ligand.
Data set [2] addresses Adenosine receptor A1 (Homo sapiens) (UniProt P30542). Nature of the data set: Displacement of [3H]DPCPX from human recombinant Adenosine A1 receptor at 10 uM incubated for 60 mins by radiometric based scintillation counter assay relative to control.
Data set [3] is described as follows: Plasma clearance in Sprague-Dawley rat at 5 mg/kg, iv administered for 12 hrs by reverse phase HPLC-UV analysis. It is filed as ADME, organism-based.
Data set [4] concerns P2Y purinergic receptor (Rattus norvegicus). Nature of the data set: Displacement of [35S]dATPalpha S from rat brain P2Y-purinergic receptor at 10 uM incubated for 60 mins by radiometric based scintillation counter assay relative to control.
Data set [5] deals with Vasopressin V2 receptor (Homo sapiens) (UniProt P30518). Kind of data set: Displacement of [3H]AVP from human recombinant Vasopressin V2 receptor at 10 uM incubated for 120 mins by radiometric based scintillation counter assay relative to control.
The target in data set [6] is Type-1 angiotensin II receptor (Homo sapiens) (UniProt P30556). Nature of the data set: Displacement of [125I][Sar1,Ile8]-AT-II from human recombinant angiotensin AT1 receptor at 10 uM incubated for 120 mins by radiometric based scintillation counter assay relative to control.
Sequence of Type-1 angiotensin II receptor (Homo sapiens) (P30556 whole entry): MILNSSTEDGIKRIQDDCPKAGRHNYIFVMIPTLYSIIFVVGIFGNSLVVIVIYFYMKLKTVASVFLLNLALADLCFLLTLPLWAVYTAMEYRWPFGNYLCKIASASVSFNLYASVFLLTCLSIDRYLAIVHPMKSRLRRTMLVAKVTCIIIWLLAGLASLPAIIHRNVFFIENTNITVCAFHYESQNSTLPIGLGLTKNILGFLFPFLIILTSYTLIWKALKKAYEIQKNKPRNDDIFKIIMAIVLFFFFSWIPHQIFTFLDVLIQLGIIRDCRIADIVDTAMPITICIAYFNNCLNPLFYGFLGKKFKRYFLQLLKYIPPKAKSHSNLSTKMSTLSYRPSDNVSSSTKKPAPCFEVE
Data set [7] addresses Substance-P receptor (Homo sapiens) (UniProt P25103). Kind of data set: Displacement of [125I]-Substance P LYS3 from human Neurokinin-1 receptor at 10 uM incubated for 30 mins by radiometric based scintillation counter assay relative to control.
The target in data set [8] is T1, Endothelin-1 receptor (Rattus norvegicus, UniProt P26684).
T1 sequence (P26684 whole entry): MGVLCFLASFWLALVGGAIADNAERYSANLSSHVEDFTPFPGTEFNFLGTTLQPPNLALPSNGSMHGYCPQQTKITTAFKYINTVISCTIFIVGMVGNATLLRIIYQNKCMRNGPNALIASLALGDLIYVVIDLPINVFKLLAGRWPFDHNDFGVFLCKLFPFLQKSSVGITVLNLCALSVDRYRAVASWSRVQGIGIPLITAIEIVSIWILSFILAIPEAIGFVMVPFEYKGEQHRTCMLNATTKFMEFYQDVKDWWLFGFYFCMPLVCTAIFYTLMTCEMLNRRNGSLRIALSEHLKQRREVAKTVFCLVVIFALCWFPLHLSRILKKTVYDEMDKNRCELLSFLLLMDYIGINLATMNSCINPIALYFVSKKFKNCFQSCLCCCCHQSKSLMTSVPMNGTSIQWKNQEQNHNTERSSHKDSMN
Nature of the data set: Displacement of [125I]endhothelin-1 from ETA receptor in rat MMQ cells Membrane at 25 degC incubated for 3 hrs by radioligand competition binding assay. It is filed as cell membranes.

Data set [9] addresses 5-hydroxytryptamine receptor 2C (Homo sapiens) (UniProt P28335). Nature of the data set: Displacement of [3H]mesulergine from human recombinant 5-Hydroxytryptamine 2C at 10 uM incubated for 120 mins by radiometric based scintillation counter assay relative to control.
Data set [10] concerns the target 5-hydroxytryptamine receptor 1A (Homo sapiens) (UniProt P08908). Kind of data set: Displacement of [3H]8-OH-DPAT from human recombinant 5-Hydroxytryptamine 1A at 10 uM incubated for 60 mins by radiometric based scintillation counter assay relative to control.
The species named for data set [11] is Rattus norvegicus. Nature of the data set: Displacement of [3H]RX 821002 from rat brain […] at 10 uM incubated for 60 mins by radiometric based scintillation counter assay relative to control. It counts as tissue-based.
For data set [12], the target named is Vasopressin V1a receptor (Homo sapiens) (UniProt P37288). Kind of data set: Displacement of [3H]AVP from human recombinant Vasopressin V1a receptor at 10 uM incubated for 60 mins by radiometric based scintillation counter assay relative to control.
Sequence of Vasopressin V1a receptor (Homo sapiens) (P37288 whole entry, looked up): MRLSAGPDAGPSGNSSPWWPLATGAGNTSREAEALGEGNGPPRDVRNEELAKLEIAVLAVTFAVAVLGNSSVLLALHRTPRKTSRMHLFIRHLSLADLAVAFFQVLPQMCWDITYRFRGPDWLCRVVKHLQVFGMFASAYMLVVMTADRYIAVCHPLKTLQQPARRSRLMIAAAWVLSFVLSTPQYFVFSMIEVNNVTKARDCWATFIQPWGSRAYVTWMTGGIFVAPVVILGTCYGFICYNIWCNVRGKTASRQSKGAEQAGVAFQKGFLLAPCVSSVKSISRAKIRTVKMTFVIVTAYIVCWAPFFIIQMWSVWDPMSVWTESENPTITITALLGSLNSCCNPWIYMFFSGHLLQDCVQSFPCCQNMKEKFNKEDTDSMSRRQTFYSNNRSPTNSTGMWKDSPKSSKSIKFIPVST
In data set [13] the target is Gastrin/cholecystokinin type B receptor (Homo sapiens) (UniProt P32239). Kind of data set: Displacement of [125I]CCK-8s from human recombinant cholecystokinin B receptor at 10 uM incubated for 60 mins by radiometric based scintillation counter assay relative to control.
Data set [14] deals with Adrenergic receptor alpha-1 (Rattus norvegicus) (UniProt P15823+P23944+P43140). Kind of data set: Displacement of [3H]prazosin from rat brain alpha1-adrenoceptor at 10 uM incubated for 60 mins by radiometric based scintillation counter assay relative to control. It is filed as tissue-based.
The target in data set [15] is Vasoactive intestinal polypeptide receptor 1 (Homo sapiens) (UniProt P32241). Kind of data set: Displacement of [125I]VIP from human recombinant Vasoactive intestinal peptide receptor at 10 uM incubated for 60 mins by radiometric based scintillation counter assay relative to control.
Sequence of Vasoactive intestinal polypeptide receptor 1 (Homo sapiens) (P32241 whole entry): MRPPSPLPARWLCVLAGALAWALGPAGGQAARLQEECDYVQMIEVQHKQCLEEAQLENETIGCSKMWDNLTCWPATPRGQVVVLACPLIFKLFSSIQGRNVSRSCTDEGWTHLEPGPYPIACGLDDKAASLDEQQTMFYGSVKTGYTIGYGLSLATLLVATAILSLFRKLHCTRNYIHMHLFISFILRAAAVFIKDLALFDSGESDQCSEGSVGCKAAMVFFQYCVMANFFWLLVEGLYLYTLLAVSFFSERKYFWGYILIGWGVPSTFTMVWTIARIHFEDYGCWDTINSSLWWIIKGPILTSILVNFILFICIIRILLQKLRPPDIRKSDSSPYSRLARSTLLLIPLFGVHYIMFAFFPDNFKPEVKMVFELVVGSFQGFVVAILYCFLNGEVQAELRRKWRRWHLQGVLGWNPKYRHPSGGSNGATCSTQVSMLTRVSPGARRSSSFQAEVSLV
For data set [16], the target named is Adenosine receptor A2a (Homo sapiens) (UniProt P29274). Kind of data set: Displacement of [3H]CGS 21680 from human recombinant Adenosine A2A receptor at 10 uM incubated for 120 mins by radiometric based scintillation counter assay relative to control.
Sequence of Adenosine receptor A2a (Homo sapiens) (P29274 whole entry): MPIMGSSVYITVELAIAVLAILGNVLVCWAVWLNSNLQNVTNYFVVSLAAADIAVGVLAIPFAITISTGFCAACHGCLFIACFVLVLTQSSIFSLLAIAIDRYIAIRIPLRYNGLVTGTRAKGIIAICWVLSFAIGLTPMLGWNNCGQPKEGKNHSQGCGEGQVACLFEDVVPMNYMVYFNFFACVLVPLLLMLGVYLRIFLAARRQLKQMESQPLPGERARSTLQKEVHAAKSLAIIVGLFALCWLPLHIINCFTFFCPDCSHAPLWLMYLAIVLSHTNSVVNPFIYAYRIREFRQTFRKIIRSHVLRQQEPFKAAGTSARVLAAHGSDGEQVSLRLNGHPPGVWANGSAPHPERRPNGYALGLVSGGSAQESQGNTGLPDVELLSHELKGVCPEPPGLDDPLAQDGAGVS
The target in data set [17] is 5-hydroxytryptamine receptor 2A (Homo sapiens) (UniProt P28223). Kind of data set: Displacement of [3H]ketanserin from human recombinant 5-Hydroxytryptamine 2A at 10 uM incubated for 60 mins by radiometric based scintillation counter assay relative to control.
Sequence of 5-hydroxytryptamine receptor 2A (Homo sapiens) (P28223 whole entry): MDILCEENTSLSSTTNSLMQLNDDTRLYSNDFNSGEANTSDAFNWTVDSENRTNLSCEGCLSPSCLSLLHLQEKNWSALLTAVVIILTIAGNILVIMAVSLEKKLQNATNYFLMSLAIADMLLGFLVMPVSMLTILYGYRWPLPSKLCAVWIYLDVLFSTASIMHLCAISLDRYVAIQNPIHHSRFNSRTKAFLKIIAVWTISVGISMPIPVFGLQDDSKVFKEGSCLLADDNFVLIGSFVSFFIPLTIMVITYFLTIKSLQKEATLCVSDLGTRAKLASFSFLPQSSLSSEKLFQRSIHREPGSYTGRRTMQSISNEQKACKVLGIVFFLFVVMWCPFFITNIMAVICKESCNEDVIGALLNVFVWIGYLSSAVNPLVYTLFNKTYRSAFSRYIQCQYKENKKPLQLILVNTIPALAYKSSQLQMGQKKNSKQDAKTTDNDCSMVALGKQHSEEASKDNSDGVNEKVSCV
Data set [18] has as its target T2, Endothelin-1 receptor (Rattus norvegicus) (UniProt P26684).
T2 sequence (whole entry): T1 sequence (P26684 whole entry)
Nature of the data set: In vivo antagonist activity to ETA receptor in endothelin-1 induced Sprague-Dawley rat assessed as inhibition of transient depressor response at 10 to 30 mg/kg, po administered for 4 hrs. Particulars: dose 10-30 mg/kg. It counts as functional, organism-based.

Data set [19] addresses T3, Endothelin-1 receptor (Homo sapiens) (UniProt P25101).
T3 sequence (whole entry): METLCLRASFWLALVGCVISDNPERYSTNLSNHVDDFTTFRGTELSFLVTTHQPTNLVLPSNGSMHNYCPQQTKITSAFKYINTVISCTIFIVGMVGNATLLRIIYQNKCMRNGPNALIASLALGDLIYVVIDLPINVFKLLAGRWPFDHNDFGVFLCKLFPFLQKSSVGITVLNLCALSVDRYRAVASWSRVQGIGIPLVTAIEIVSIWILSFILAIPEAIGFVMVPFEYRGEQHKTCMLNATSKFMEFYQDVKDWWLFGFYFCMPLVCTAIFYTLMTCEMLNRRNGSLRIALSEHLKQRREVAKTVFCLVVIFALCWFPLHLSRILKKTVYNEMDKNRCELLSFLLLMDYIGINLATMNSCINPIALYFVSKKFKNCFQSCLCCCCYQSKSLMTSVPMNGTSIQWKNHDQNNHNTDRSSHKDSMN
Kind of data set: Displacement of [125I]endothelin-1 from human recombinant endothelin ETA receptor at 10 uM incubated for 120 mins by radiometric based scintillation counter assay relative to control. The following applies: filed as antagonist.

Data set [20] deals with Beta-1 adrenergic receptor (Homo sapiens) (UniProt P08588). Kind of data set: Displacement of [3H](-)CGP 12177 from human recombinant beta1-adrenoceptor at 10 uM incubated for 60 mins by radiometric based scintillation counter assay relative to control.
Sequence of Beta-1 adrenergic receptor (Homo sapiens) (P08588 whole entry, looked up): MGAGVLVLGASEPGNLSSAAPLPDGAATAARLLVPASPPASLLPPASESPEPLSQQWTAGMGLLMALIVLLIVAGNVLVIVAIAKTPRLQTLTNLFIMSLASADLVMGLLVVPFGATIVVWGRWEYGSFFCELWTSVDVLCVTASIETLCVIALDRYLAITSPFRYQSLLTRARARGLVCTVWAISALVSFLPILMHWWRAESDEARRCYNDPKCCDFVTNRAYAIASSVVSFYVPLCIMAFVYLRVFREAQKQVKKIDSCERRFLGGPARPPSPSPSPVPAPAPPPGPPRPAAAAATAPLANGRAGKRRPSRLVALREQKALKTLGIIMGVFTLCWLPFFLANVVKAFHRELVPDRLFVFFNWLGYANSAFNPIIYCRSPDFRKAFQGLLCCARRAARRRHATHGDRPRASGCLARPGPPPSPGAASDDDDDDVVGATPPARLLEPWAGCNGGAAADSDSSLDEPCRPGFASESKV
Data set [21] can be described thus: Cmax in Beagle dog at 5 mg/kg, po administered for 12 hrs by HPLC analysis. The following applies: in vivo. It counts as ADME, organism-based, Canis lupus familiaris.
The target in data set [22] is Delta-type opioid receptor (Homo sapiens) (UniProt P41143). Kind of data set: Displacement of [3H]DPDPE from human recombinant delta-Opioid receptor at 10 uM incubated for 60 mins by radiometric based scintillation counter assay relative to control. Particulars: filed as antagonist.
Sequence of Delta-type opioid receptor (Homo sapiens) (P41143 whole entry): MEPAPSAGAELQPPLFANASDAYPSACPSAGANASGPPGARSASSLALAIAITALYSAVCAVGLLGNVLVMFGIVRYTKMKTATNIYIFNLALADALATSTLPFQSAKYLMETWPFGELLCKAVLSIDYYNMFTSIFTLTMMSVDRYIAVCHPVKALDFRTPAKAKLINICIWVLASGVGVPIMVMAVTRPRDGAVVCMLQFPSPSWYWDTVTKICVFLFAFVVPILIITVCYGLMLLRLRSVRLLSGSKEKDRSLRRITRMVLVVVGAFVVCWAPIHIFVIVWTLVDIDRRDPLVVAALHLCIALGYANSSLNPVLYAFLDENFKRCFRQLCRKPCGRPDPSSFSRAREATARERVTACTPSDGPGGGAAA

Sequence of Adenosine receptor A1 (Homo sapiens) (P30542 whole entry): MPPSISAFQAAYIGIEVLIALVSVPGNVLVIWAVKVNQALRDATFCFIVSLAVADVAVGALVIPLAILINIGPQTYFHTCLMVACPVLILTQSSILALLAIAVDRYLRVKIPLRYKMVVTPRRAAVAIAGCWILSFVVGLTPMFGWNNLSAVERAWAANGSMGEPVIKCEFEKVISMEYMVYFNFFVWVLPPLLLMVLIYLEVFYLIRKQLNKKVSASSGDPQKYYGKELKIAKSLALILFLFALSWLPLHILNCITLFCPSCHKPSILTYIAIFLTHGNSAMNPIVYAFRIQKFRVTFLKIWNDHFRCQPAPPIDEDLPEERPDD
Sequence of 5-hydroxytryptamine receptor 2C (Homo sapiens) (P28335 whole entry): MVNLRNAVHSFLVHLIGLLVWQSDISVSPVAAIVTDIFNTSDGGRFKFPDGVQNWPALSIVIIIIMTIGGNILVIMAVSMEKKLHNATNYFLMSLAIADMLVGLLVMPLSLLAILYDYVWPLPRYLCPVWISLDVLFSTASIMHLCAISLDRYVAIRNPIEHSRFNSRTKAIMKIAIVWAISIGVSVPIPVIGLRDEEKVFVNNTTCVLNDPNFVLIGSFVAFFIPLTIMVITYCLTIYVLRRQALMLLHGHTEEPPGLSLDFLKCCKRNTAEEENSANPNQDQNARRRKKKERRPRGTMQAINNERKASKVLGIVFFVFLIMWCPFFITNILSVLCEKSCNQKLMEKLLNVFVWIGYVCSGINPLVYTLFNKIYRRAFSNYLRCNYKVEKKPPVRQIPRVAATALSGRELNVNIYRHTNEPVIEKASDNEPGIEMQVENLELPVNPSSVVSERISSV
Sequence of Substance-P receptor (Homo sapiens) (P25103 whole entry): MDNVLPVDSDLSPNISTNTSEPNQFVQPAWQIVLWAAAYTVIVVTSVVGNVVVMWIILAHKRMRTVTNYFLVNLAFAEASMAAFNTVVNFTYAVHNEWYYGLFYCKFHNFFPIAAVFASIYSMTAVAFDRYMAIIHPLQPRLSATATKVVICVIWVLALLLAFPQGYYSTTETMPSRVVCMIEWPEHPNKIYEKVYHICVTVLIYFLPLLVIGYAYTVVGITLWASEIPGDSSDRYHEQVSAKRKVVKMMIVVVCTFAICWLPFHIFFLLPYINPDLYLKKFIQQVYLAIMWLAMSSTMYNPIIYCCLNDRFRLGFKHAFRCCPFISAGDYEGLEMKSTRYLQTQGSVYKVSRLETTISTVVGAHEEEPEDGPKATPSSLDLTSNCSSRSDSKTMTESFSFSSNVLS
Sequence of 5-hydroxytryptamine receptor 1A (Homo sapiens) (P08908 whole entry): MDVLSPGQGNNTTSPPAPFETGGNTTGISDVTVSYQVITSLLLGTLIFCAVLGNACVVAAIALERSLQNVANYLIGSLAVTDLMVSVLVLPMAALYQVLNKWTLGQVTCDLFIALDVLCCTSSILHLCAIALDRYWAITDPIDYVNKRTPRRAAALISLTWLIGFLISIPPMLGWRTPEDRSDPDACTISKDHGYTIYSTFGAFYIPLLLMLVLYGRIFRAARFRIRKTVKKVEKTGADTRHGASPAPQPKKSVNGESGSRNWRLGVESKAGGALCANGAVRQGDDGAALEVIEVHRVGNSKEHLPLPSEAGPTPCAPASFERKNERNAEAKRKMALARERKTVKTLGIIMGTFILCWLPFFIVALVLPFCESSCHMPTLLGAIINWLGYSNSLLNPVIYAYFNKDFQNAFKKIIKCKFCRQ

Consider `CCCCN(CCCC)C(=O)CN1[C@H](c2cc(OC)c3c(c2)OCO3)C[C@@H](C(=O)O)[C@@H]1CC(C)(C)CCC`, for which the inhibition in data set [1] was 61%; in data set [2] it was 23%; in data set [4], under 10%; in data set [5], under 10%; in [6] it was under 10%; in data set [7] it was under 10%. For the same compound, the inhibition in data set [9] is under 10%; in data set [10], under 10%; in data set [11], 18%; in [12], under 10%; in [13], under 10%; in data set [14], under 10%. Further, the inhibition is under 10% in data set [15]; under 10% in [16]; under 10% in data set [17]; 98% in [19]; under 10% in data set [20]; 62% in [22]. The same compound showed a clearance in data set [3] of 25 mL/min/kg. In data set [8], this compound gave a 50% inhibitory concentration (IC50) of 0.56 nM. Moreover, the result in data set [18] was inactive. Further, the concentration in data set [21] peaked (Cmax) at 1970 ng/mL.
